The target of the test is tau (htau40), synthetic filaments (Homo sapiens, UniProt P10636). The experiment in a line: Thioflavin S fluorescence displacement from synthetic htau40 filaments. Type of test: binding.
tau (htau40), synthetic filaments, sequence (P10636 1-441 isoform P10636-8): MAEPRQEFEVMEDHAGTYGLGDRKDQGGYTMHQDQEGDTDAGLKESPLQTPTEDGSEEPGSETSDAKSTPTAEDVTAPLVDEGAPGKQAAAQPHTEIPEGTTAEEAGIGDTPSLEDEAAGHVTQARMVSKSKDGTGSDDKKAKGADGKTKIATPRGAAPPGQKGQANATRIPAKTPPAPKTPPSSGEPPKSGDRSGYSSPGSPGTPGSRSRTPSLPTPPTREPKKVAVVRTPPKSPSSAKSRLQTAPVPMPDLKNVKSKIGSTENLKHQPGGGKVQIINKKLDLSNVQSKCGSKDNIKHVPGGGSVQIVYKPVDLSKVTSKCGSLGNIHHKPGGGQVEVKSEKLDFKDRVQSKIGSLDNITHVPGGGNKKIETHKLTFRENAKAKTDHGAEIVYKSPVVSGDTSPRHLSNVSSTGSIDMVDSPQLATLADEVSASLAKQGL

As a reminder, the AC50 is the concentration at which the activity in the assay is half-maximal. A low value points to greater potency. The compound `COc1ccc2nc(/N=N/c3ccc(N(C)C)cc3)sc2c1` [N3, (E)-2-[[4-(dimethylamino)phenyl]azo]-6-methoxybenzothiazole] gave an AC50 of 36 ± 6 nM.

(Values after publication PMC3740339 (Neurotoxicity research, 2009).)
